Patent US8921271B2, “Herbicidal composition comprising flazasulfuron and metribuzin” (Ishihara Sangyo Kaisha, Ltd., priority 2011, dated 2014)

Experiments:
[1] = test system: goosegrass; assay: Test Example 2: pot test, foliar treatment at 5 leaf stage, visual growth inhibition of goosegrass; assay type: in vivo, Eleusine indica (L.) Gaertn.; conditions: Eleusine indica, foliar treatment at 5 leaf stage with 0.25 vol % Agral, 28th day after treatment, read-out: Growth inhibition rate (%) of goosegrass, Measured value
Experimental: Upland field soil was put into a 1/1,000,000 ha pot, and seeds of goosegrass (Eleusine indica (L.) Gaertn.) were sown. When goosegrass reached 5 leaf stage, SHIBAGEN DF (tradename) and Unimark (tradename) in predetermined amounts were diluted with water (corresponding to 200 L/ha) containing 0.25 vol % of an agricultural adjuvant (tradename: Agral, manufactured by Syngenta crop protection) and applied for foliar treatment by a small sprayer.
On the 28th day after the treatment, the state of growth of goosegrass was visually observed, and the growth inhibition rate (%) obtained in the same manner as in Test Example 1 is shown in Table 2.

[2] = test system: ivy-leaved morningglory; assay: Test Example 3: pot test, treatment the day after sowing, visual growth inhibition of ivy-leaved morningglory; assay type: in vivo, Ipomoea hederacea (L.) Jacq.; conditions: Ipomoea, treatment on the day after sowing, 14th day after treatment, read-out: Growth inhibition rate (%) of ivy-leaved morningglory, Measured value
Experimental: Upland field soil was put into a 1/1,000,000 ha pot, and seeds of ivy-leaved momingglory (Ipomoea hederacea (L.) Jacq.) were sown. On the next day, SHIBAGEN DF (tradename) and Unimark (tradename) in predetermined amounts were diluted with water corresponding to 300 L/ha and applied for […] by a small sprayer. On the 14th day after the treatment, the state of growth of ivy-leaved momingglory was visually observed, and the growth inhibition rate (%) obtained in the same manner as in Test Example 1 is shown in Table 3.

[3] = test system: summergrass, giant foxtail, redroot pigweed and threeseeded copperleaf; assay: Test Example 5: field test, foliar treatment, weed coverage (residual activity); assay type: in vivo; conditions: for Weed coverage (%) 6th day after treatment / Weed coverage (%) 20th day after treatment / Weed coverage (%) 33rd day after treatment: field, foliar treatment with 0.25 vol % Agral, coverage relative to non-treated area; for change in weed coverage: on the 20th day after the treatment, single active ingredient, field test
From the text: In a field in which summergrass (Digitaria ciliaris (Retz.) Koel), giant foxtail (Setaria faberi Herrm.), redroot pigweed (Amaranthus retroflexus L.) and threeseeded copperleaf (Acalypha australis L.) emerged, was compartmentalized into compartments of 0.5×1 m. When summergrass reached from 5 to 10 leaf stage, giant foxtail reached from 6 to 7 leaf stage, threeseeded copperleaf reached from 4 to 10 leaf stage and redroot pigweed reached from 6 to 9 leaf stage, SHIBAGEN DF (tradename) and Unimark (tradename) in predetermined amounts were diluted with water (corresponding to 200 L/ha) containing 0.25 vol % of an agricultural adjuvant Agral (tradename) and applied for foliar treatment by a small sprayer in each compartment.
On the 6th, 20th and 33rd days after the treatment, the weed coverage (%) of the above four types of weeds in each compartment was visually observed, and the results are shown in Table 5 and FIG. 1. The weed coverage (%) was calculated in accordance with the following formula.
A: (the area of the ground surface covered with the weed aerial part (leaves and stem) in the treated area)
B: (the area of the ground surface covered with the weed aerial part (leaves and stem) in the non-treated area) Weed coverage(%)=(A/B)×100
In FIG. 1, x-x represents the weed coverage in the area treated with flazasulfuron, ▴-▴ represents the weed coverage in the area treated with metribuzin, and ●-● represents the weed coverage in the area treated with flazasulfuron and metribuzin in combination.

[4] = test system: shattercane; assay: Test Example 4: pot test, soil treatment, visual growth inhibition of shattercane; assay type: in vivo, Sorghum bicolor (L.) Moench.; conditions: Sorghum bicolor, soil treatment on the day after sowing, 14th day after treatment, read-out: Growth inhibition rate (%) of shattercane, Measured value
Experimental: Upland field soil was put into a 1/1,000,000 ha pot, and seeds of shattercane (Sorghum bicolor (L.) Moench.) were sown. On the next day, SHIBAGEN DF (tradename) and Unimark (tradename) in predetermined amounts were diluted with water corresponding to 300 L/ha and applied for soil treatment by a small sprayer.
On the 14th day after the treatment, the state of growth of shattercane was visually observed, and the growth inhibition rate (%) obtained in the same manner as in Test Example 1 is shown in Table 4.

[5] = test system: goosegrass; assay: Test Example 1: pot test, soil treatment, visual growth inhibition of goosegrass; assay type: in vivo, Eleusine indica (L.) Gaertn.; conditions: Eleusine indica, 24 h, soil treatment one day after sowing, 14th day after treatment, read-out: Growth inhibition rate (%) of goosegrass, Measured value
Experimental: Upland field soil was put into a 1/1,000,000 hectare pot, and seeds of goosegrass (Eleusine indica (L.) Gaertn.) were sown. One day later, water dispersible granules containing flazasulfuron as an active ingredient (tradename: SHIBAGEN DF, manufactured by Ishihara Sangyo Kaisha, Ltd.) and water dispersible granules containing metribuzin as an active ingredient (tradename: Unimark, manufactured by UPL) in predetermined amounts were diluted with water corresponding to 200 L/ha and applied for soil treatment by a small sprayer.
On the 14th day after the treatment, the state of growth of goosegrass was visually observed to determine the growth inhibition rate (%) (measured value) in accordance with the following evaluation standard. Further, in accordance with the Colby's formula, the growth inhibition rate (%) (calculated value) was calculated. Growth inhibition rate(%)=0 (equivalent to the non-treated area) to 100 (complete kill)

| Compound | inhibition at 37.5 g/ha ([1]; dose 37.5 g/ha) [%] | inhibition at 100 g/ha ([2]; dose 100 g/ha) [%] | Weed coverage (%) 6th day after treatment ([3]; dose 37.5 g/ha) [%] | Weed coverage (%) 20th day after treatment ([3]; dose 37.5 g/ha) [%] | Weed coverage (%) 33rd day after treatment ([3]; dose 37.5 g/ha) [%] | change in weed coverage [3] | inhibition at 15 g/ha ([4]; dose 15 g/ha) [%] | inhibition at 18.75 g/ha ([5]; dose 18.75 g/ha, 0 = non-treated, 100 = complete kill) [%] | inhibition at 800 g/ha ([1]; dose 800 g/ha) [%] | inhibition at 1000 g/ha ([1]; dose 1,000 g/ha) [%] | inhibition at 300 g/ha ([2]; dose 300 g/ha) [%] | Weed coverage (%) 6th day after treatment ([3]; dose 1,200 g/ha) [%] | Weed coverage (%) 20th day after treatment ([3]; dose 1,200 g/ha) [%] | Weed coverage (%) 33rd day after treatment ([3]; dose 1,200 g/ha) [%] | inhibition at 2000 g/ha ([4]; dose 2,000 g/ha) [%] | inhibition at 300 g/ha ([5]; dose 300 g/ha) [%] | inhibition at 600 g/ha ([5]; dose 600 g/ha) [%] |
| --- | --- | --- | --- | --- | --- | --- | --- | --- | --- | --- | --- | --- | --- | --- | --- | --- | --- |
| COc1cc(OC)nc(NC(=O)NS(=O)(=O)c2ncccc2C(F)(F)F)n1 [Flazasulfuron, 1-(4,6-dimethoxypyrimidin-2-yl)-3-(3-trifluoromethyl-2-pyridylsulfonyl)urea] | 25 | 80 | 26 | 30 | 65 | an increase in the weed coverage was confirmed | 30 | 30 | – | – | – | – | – | – | – | – | – |
| CSc1nnc(C(C)(C)C)c(=O)n1N [Metribuzin, 4-amino-6-tertiary butyl-3-methylthio-1,2,4-triazin-5(4H)-one] | – | – | – | – | – | an increase in the weed coverage was confirmed | – | – | 83 | 90 | 0 | 19 | 24 | 35 | 20 | 55 | 73 |
